Reference: article PMC5498548
Values after ≈ are worked out from the molar mass of the structure shown. Values joined by “and” are separate entries in the source; they are usually repeats but may differ in a detail not shown here. Equal values may be shown once. “Also recorded” adds a separate entry of the source. Where a name gives a salt, the structure may show the parent alone. Read-outs that look alike come from different tables or passages of the source.

T1: IdeR (Mycobacterium tuberculosis, UniProt P9WMH1 1-230)
T1 sequence: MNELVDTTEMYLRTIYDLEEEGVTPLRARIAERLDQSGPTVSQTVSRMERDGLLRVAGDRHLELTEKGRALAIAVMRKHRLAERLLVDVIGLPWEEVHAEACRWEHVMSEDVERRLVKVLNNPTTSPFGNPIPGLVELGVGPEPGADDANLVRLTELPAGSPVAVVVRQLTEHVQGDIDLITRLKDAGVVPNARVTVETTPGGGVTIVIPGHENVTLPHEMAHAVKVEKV

B1: mbtA-mbtB intergenic IdeR binding region oligo (dsDNA)
DNA 1: CCCTGTTAGCACAGGCTGCCCTAATTTTAGTG
DNA 2: CACTAAAATTAGGGCAGCCTGTGCTAACAGGG

Experiments:
IdeR [1] = molecular target: T2, IdeR (Mycobacterium tuberculosis, UniProt P9WMH1); test: biochemical; details: EMSA
IdeR [2] = molecular target: T2, IdeR; test: EMSA competition experiments with increasing labeled DNA; type: biochemical; details: DNA 0.8 pmoles to 12.8 pmoles
IdeR [3] = molecular target: T2, IdeR; test: EMSA with Fe2+ instead of Ni2+: effect of iron on inhibition; type: biochemical; details: 100 µM Fe2+, 100 µg/ml compound
M. tuberculosis = test: Resazurin microtiter assay (REMA) whole cell MIC90 in broth culture; type: cell-based, Mycobacterium tuberculosis; details: MB7H9 medium, Mean ± S.E., three experiments; for MIC90: Mycobacterium tuberculosis, read-out: MIC90 of compounds against M. tuberculosis
[4] = tested on: THP-1 (human monocytic macrophage cell line); test: Cytotoxicity by REMA in THP-1; type: cell-based; details: for IC50: Homo sapiens, THP-1, 1-200 µg/ml, read-out: Inhibition in THP1 (IC50 in µg/ml)
Description: (§1) The cytotoxicity of the compounds was determined by employing REMA using various mammalian cell lines such as THP-1 (human monocytic macrophage cell line), HEK (Human Embryonic Kidney cell line), MDCK (Madine darby canine kidney cell line) and HepG2 (Human hepatocellular carcinoma cell line). 1 × 10^4 cells/well were employed in a sterilized 96-well plate containing serial dilutions of compounds ranging from 1 µg/ml to 200 µg/ml concentration, in their respective media (RPMI for THP-1, DMEM for HEK and HepG2 and MEM for MDCK) with 10% fetal bovine serum and Antibiotic-Antimycotic mix (Invitrogen Corporation, Carlsbad, California, USA). IC50 is defined as the concentration of the compound that causes 50% reduction in the fluorescence intensity indicating 50% viable cells. IC50 values were determined from the results of at least two independent tests and Mean ± S.E.M was calculated from the inhibition curve using GraphPad Prism 5.

[5] = tested on: HEK (Human Embryonic Kidney cell line); test: Cytotoxicity by REMA in HEK; type: cell-based; details: Homo sapiens, 1-200 µg/ml, read-out: Inhibition in HEK (IC50 in µg/ml)
Description: as §1

[6] = tested on: MDCK (Madine darby canine kidney cell line); test: Cytotoxicity by REMA in MDCK; type: cell-based; details: Canis lupus familiaris, MDCK, 1-200 µg/ml, read-out: Inhibition in MDCK (IC50 in µg/ml)
Description: as §1

[7] = tested on: HepG2 (Human hepatocellular carcinoma cell line); test: Cytotoxicity by REMA in HepG2; type: cell-based; details: Homo sapiens, HepG2, 1-200 µg/ml, read-out: Inhibition in HepG2 (IC50 in µg/ml)
Description: as §1

[8] = tested on: intracellular M. tuberculosis H37Rv; test: Inhibition of intracellular M. tuberculosis in PMA activated THP-1 cells, spotting on agar plates; type: cell-based, Mycobacterium tuberculosis
IdeR [9] = molecular target: T1, IdeR; test: EMSA; details: protein: recombinant; tags: vector pET28c NdeI/HindIII (His-tag, Ni-NTA purified); C-terminal streptactin tag from reverse primer; chain copies: 4; label: Cy5 at 5' end of both strands; blunt (only sense strand printed)
[10] = 0.35 µg IdeR, 0.8 picomoles labeled DNA, 200 µM NiSO4, inhibitor 0.4-100 µg/ml, read-out: IC50 (µg/ml) (converted)
[11] = same values given in µM, read-out: IC50
[12] = at 500 μg/ml (highest concentration tested), infected THP-1, 5 days
[13] = at concentrations lower than 500 μg/ml (100 to 400 μg/ml), infected THP-1

| Molecule | IC50 (IdeR [1]; [10]) | IC50 (IdeR [1]; [11]) [µM] | mode of inhibition in competition with DNA (IdeR [2]) | effect of iron on the inhibitory potential (IdeR [3]) | MIC90 of compounds against M. tuberculosis (M. tuberculosis) | MIC90 (M. tuberculosis) [µg/mL] | IC50 [4] [µg/mL] | IC50 [5] [µg/mL] | IC50 [6] [µg/mL] | IC50 [7] [µg/mL] | growth of intracellular M. tuberculosis on agar plates [8, 12] | growth of intracellular M. tuberculosis on agar plates [8, 13] | Inhibition in THP1 (IC50 in µg/ml) ([4]; 1-200 µg/ml) | growth of intracellular M. tuberculosis on agar plates ([8]; at 150 μg/ml and 125 μg/ml, infected THP-1, 5 days) | growth of intracellular M. tuberculosis on agar plates ([8]; at lower concentrations (100 to 25 μg/ml), infected THP-1, 5 days) | binding result (IdeR [9]) |
| --- | --- | --- | --- | --- | --- | --- | --- | --- | --- | --- | --- | --- | --- | --- | --- | --- |
| O=C(O)C1(Cc2ccc(O)c(O)c2)NCCS1 (stereo not drawn) [Compound I-20, 2-(3,4-dihydroxybenzyl)-1,3-thiazolidine-2-carboxylic acid] | 9.56 µM | 9.56 | competing with DNA | no effect |  |  |  |  |  |  |  |  |  |  |  |  |
| Cc1nn(-c2ccccc2)c2c1N=C(C(=O)O)CC(c1ccccc1)=N2 [Compound I-33, 3-methyl-1,7-diphenyl-1,6-dihydropyrazolo[3,4-b][1,4]diazepine-5-carboxylic acid] | 63 µM and 63.1 µM | 63 |  |  | 93 µg/mL and 93.3 ± 8.16 µg/mL | 93.3 (≈ 271 µM) | > 200 | > 200 | > 200 | > 200 | negligible inhibition | unaffected |  |  |  |  |
| Cc1ccc(C2=Nc3c(c(C)nn3-c3ccccc3)N=C(C(=O)O)C2)cc1 [Compound I-34, 3-methyl-7-(4-methylphenyl)-1-phenyl-1,6-dihydropyrazolo[3,4-b][1,4]diazepine-5-carboxylic acid] | ≤ 69.8 µM and 17 µM and 16.7 µM | 17 | competing with DNA | no effect | 86 µg/mL and 86.6 ± 7.8 µg/mL | 86.6 (≈ 242 µM) | > 200 | > 200 | > 200 | > 200 | negligible inhibition; also recorded: unable to limit the growth of intracellular bacteria | unaffected |  |  |  |  |
| O=S(=O)(O)c1ccc(O)c(N=Nc2c(O)ccc3ccccc23)c1 [Compound I-42, Benzene sulfonic acid,4-hydroxy-3-[(2-hydroxy-1-naphthalenyl)azo]-monosodium salt] | ≤ 72.6 µM and 2.9 µM | 2.72 | competing with DNA | no effect |  |  |  |  |  |  |  |  |  |  |  |  |
| Cc1ccc(S(=O)(=O)C2CC(=O)N(c3ccc(F)c(Cl)c3)C2=O)cc1 (stereo not drawn) [Compound I-108, 1-(3-chloro-4-fluorophenyl)-3-[(4-methylphenyl)sulfonyl]pyrrolidine-2,5-dione] | 62.9 µM and 63.6 µM | 63.6 |  |  | 17.5 ± 3.06 µg/mL | 17.5 (≈ 45.8 µM) | 168 ± 5.6 (≈ 439 µM) | > 200 | > 200 | > 200 |  |  | slight toxicity | only a few pin pointed colonies; also recorded: pin point colonies; also recorded: able to limit the growth of intracellular bacteria | prominent growth of bacilli |  |
| B1 |  |  |  |  |  |  |  |  |  |  |  |  |  |  |  | binds |
